Entries after “also recorded” stand apart in the source; their conditions may differ.

Series [1] has as its system human mesenchymal stem cells (hMSCs). The series can be described thus: Live-dead assay of hMSCs encapsulated in collagen gels formed with riboflavin and blue light. The format is cell-based. The settings on record: 72 hours; riboflavin 0.25 mM or less; 20 sec blue light at 100 mW/cm^2; cells in collagen gel. From the text:
A major clinical challenge is the delivery of cells, particularly stem cells, to an diseased or damaged area of the body. Currently, the stem cells are typically injected in suspension to an area without a specific or effective means to have them target and adhere to a particular location. Providing a immobilizing matrix and microenvironment in which to settle and grow while remaining immobilized to that are would be an advancement in the art. Cells can be encapsulated within a biomolecular gel according to the present invention. […] Using this method, hMSCs and other cell types can be encapsulated and positioned to a specific location in the body. For instance, a collagen gel encapsulating hMSCs can be formed and adhered in situ using blue light and riboflavin on the surface of a corneal wound, creating a “living reservoir” of therapeutic factors that are secreted by the immobilized hMSCs. The formed gel adheres to the target tissue due to crosslinks formed between the exogenously applied collagen and the collagen on the wound bed or target tissue which is shown by example in FIG. 9D.

Series [2] concerns primary rabbit corneal epithelial cells (CECs). The series can be described thus: Proliferation of corneal epithelial cells on EGF-bound collagen surfaces. It counts as cell-based. The settings on record: over 5 days; EGF bound to collagen by V-CXL vs collagen without covalently linked EGF; both concentrations tested. The method, then:
Enhanced cell proliferation on growth factor fortified collagen gels. Late-passage primary rabbit corneal epithelial cells (CECs) of the same cell density were grown on surfaces with EGF bound to collagen using V-CXL as well as standard collagen-coated tissue-culture polystyrene without covalently linked EGF.

Series [3] deals with 2 mm corneal debridement wound. The series can be described thus: Rodent corneal debridement wound healing and ocular tolerance study. The format is in vivo. The method, then: FIGS. 13A-13D show results of EGF surface-coupling by V-CXL in a rodent corneal debridement animal model. A 2 mm corneal debridement was performed in three groups of two rodent eyes each (average corneal diameter=3 mm). Shown here are photographs of fluorescein-stained rodent eyes at 24 hours: EGF encapsulated within a collagen gel using riboflavin and blue light exposure for 5 seconds (FIG. 13A), EGF coupling directly to corneal stroma using riboflavin and blue light exposure for 5 seconds (FIG. 13B), topical EGF only (FIG. 13C), and no treatment (FIG. 13D). Slit lamp photos of the wounded and treated eyes are shown on the left, and fluorescein staining of the same eyes are shown on the right.
Mouse corneas were subject to 2 mm diameter circular corneal debridement and then treated with (1) a collagen gel solution containing 0.01 mg/ml of EGF, and 0.1 mg/ml riboflavin and exposed to blue light (˜458 nm) for 5 seconds, (2) an aqueous EGF solution containing 0.01 mg/ml EGF and 0.1 mg/ml riboflavin and exposed to blue light for 5 seconds, (3) topical application of an aqueous solution of EGF alone at a concentration of 0.01 mg/mL, or (4) no treatment. The rodents were then examined at 24 hours and the wound areas examined by fluorescein staining.
In vivo ocular tolerance and wound healing animal study: In an animal study in rodents, V-CXL was used to bind EGF to wounded corneas. Briefly, a 2 mm diameter debridement was performed, and the wound bed was treated topically with 0.025 mM of riboflavin mixed with 0.01 mg/mL of EGF delivered topically to the wound bed and allowed incubate for 10 minutes followed by 5 seconds of exposure to blue light (˜458 nm) at 60 mW/cm^2. The eye was then rinsed with BSS. Controls used were topical EGF alone and no treatment.

Series [4] can be described thus: EGF release from V-CXL collagen gels (ELISA). It counts as physicochemical. The settings on record: 37° C., 2 to 120 hours. The procedure:
FIG. 9C summarizes the storage and loss modulus of collagen gels crosslinked using riboflavin and blue light exposure of different time intervals.
Growth factor release. To understand the ability of growth factors to be liberated from crosslinked collagen, human recombinant EGF (Peprotech) was incorporated within collagen gels during gelation. A neutralized 3% collagen solution with 0.25 mM riboflavin was exposed to blue light (˜458 nm) at 60 mW/cm^2 for 20 seconds. The formed gel was then cut into cylindrical discs and placed in a PBS solution with or without 0.1% versus 0.2% collagenase at 37° C. on a shaker. The solution was then sampled at intervals starting at 2 hours to 120 hours. An ELISA kit was then used to evaluate the concentration of released EGF in the solution.
In general terms: In an ELISA, binding on a coated surface is turned into a signal by an enzyme label.

The subject of another series is NGF receptor. The series can be described thus: Ellipsometry of soluble NGF receptor binding to NGF-coupled collagen surfaces. The settings on record: NGF photochemically coupled to collagen compared to physisorbed NGF. From the text:
V-CXL binds growth factors directly to collagen. V-CXL was used to bind EGF and NGF growth factors directly to collagen. Fluorometry (FIG. 3), surface plasmon resonance (FIG. 4), ellipsometry (FIG. 5), and ELISA (FIG. 6) were used to monitor and compare the chemical coupling versus physical adsorption of NGF and EGF to collagen surfaces. In these experiments, collagen was first chemically immobilized to either gold, glass, or polystyrene surfaces (depending on the method being used), followed by V-CXL-mediated coupling of either EGF or NGF (or their fluorescein-isothiocyanate (FITC)-labeled conjugates) to the collagen coating alone or physical adsorption of growth factor to collagen from aqueous solution.
Exposure of NGF to blue light in the presence of riboflavin led to a step-increase in the layer thickness of the collagen-coated gold wafer.

For `Cc1cc2nc3c(=O)[nH]c(=O)nc-3n(C[C@H](O)[C@H](O)[C@H](O)CO)c2cc1C` [riboflavin], the “% living hMSCs (viability)” value in series [1] was “greater than 90%”.
Turning to epidermal growth factor [EGF], the “proliferation of senescent primary CECs” value in series [2] is on record as “greater proliferation”. Further, in series [3] (24 hours, 0.01 mg/ml EGF, 0.1 mg/ml riboflavin, blue light (~458 nm) 5 seconds), the “wound area by fluorescein staining vs topical EGF alone or no treatment” value is listed as “smaller; also recorded: greater wound area reduction”. In addition, in series [3] (24 hours, EGF-coupled corneas (0.025 mM riboflavin, 0.01 mg/mL EGF, 5 s blue light) vs topical EGF alone and no treatment, n=2), the “reduction in wound area by fluorescein staining compared with controls” value was “greater reduction in wound area”. Also, the “wound area as % of the wound area in topical EGF-treated eyes” value in series [3] (24 hours, V-CXL: 0.025 mM riboflavin + 0.01 mg/mL EGF, 5 seconds blue light (~458 nm) at 60 mW/cm^2, n=2, ImageJ analysis) was “approximately 50%”. Also, the “wound area as % of the wound area of untreated eyes” value in series [3] (24 hours, V-CXL: 0.025 mM riboflavin + 0.01 mg/mL EGF, 5 seconds blue light at 60 mW/cm^2, n=2, ImageJ analysis) was “approximately 35%”. The “signs of ocular intolerance (conjunctival injection, swelling, discharge, corneal toxicity)” value in series [3] (eyes treated with EGF and riboflavin in the V-CXL reaction) is on record as “No signs of ocular intolerance”. Further, the “EGF release from collagen gel” value in series [4] (0.1% versus 0.2% collagenase in PBS) was “increases the release in a dose-dependent manner; also recorded: accelerated in a dose-dependent manner”; in series [4] (PBS alone, 3% collagen, 0.25 mM riboflavin, blue light 60 mW/cm^2 20 seconds) it was “relatively slow release and slow”.
With nerve growth factor [NGF], the “NGF receptor binding (change in relative layer thickness)” value in the series on NGF receptor is “higher amount of NGF receptor binding; also recorded: greater NGF binding”.

For the origin of these results see US20190022220A1, “LIGHT-ACTIVATED ANCHORING OF THERAPEUTIC FACTORS TO TISSUES” (The Board of Trustees of the Leland Stanford Junior …, priority 2016, published 2019).
